{"source": "patent US5854039A", "about": "“Transformation of pichia methanolica” (ZymoGenetics, Inc., priority 1997, dated 1998)", "system": "P. methanolica cells (strain CBS6515), UV-mutagenized", "assay": "Nystatin enrichment for auxotrophic mutants, titering for colony forming units", "assay_type": "cell-based, Pichia methanolica", "settings": "1 mg nystatin added to remainder of 500 ml culture in minimal broth, one additional hour with shaking, nystatin-treated versus control cells", "method": "Large-scale mutagenesis was then carried out using a 2-second UV exposure to provide about 20% killing. Cells were plated at approximately 10^4 cells/plate onto eight YEPD plates that were supplemented with 100 mg/L each of uracil, adenine, and leucine, which were added to supplement the growth of potential auxotrophs having the cognate deficiencies. Following UV exposure the plates were wrapped in foil and incubated overnight at 30° C. The following day the colonies on the plates (~10^5 total) were resuspended in water and washed once with water. An amount of cell suspension sufficient to give an OD600 of 0.1-0.2 was used to inoculate 500 ml of minimal broth made with yeast nitrogen base without amino acids or ammonia, supplemented with 1% glucose and 400 μg/L biotin. The culture was placed in a 2.8 L baffled Bell flask and shaken vigorously overnight at 30° C. The following day the cells had reached an OD600 of ~1.0-2.0. The cells were pelleted and resuspended in 500 ml of minimal broth supplemented with 5 g/L ammonium sulfate. The cell suspension was placed in a 2.8 L baffled Bell flask and shaken vigorously at 30° C. for 6 hours. 50 ml of the culture was set aside in a 250-ml flask as a control, and to the remainder of the culture was added 1 mg nystatin to select for auxotrophic mutants (Snow, Nature 211:206-207, 1966). […]", "data": [{"smiles": "C[C@@H]1[C@H](O)[C@@H](C)/C=C/C=C/CC/C=C/C=C/C=C/C=C/C(O[C@H]2O[C@H](C)[C@@H](O)[C@H](N)[C@@H]2O)CC2O[C@](O)(CC(O)C(O)CCC(O)CC(O)CC(O)CC(=O)O[C@H]1C)CC(O)C2C(=O)O", "note": "(stereo partly shown) [nystatin]", "values": [{"measurement": "decrease in the number of viable cells (factor)", "value": "10^4"}]}]}
